Test results taken from paper PMC6024615, “Effect of Biliary Drainage on the Toxicity and Toxicokinetics of Amanita exitialis in Beagles” (Toxins, 2018).
Where two headings read alike, the source gives them in different places. Marks after values point to notes of the source that are not given here.

Legend:
[1] = cited from earlier work
Protocol: The difference in detectable time in the urine can be explained by the low level of internal exposure (amatoxins in the blood). […] The daily amounts of peptide toxins excreted in urine in beagles without biliary drainage(mg). Time after α-Amanitin β-Amanitin Phallacidin ingestion 20 mg/kg 60 mg/kg 20 mg/kg 60 mg/kg 20 mg/kg 60 mg/kg group group group group group group 0-1d 0.0379 0.0593 0.0156 0.0251 0.0035 0.0088 (97.9%) (92.8%) (99.9%) (94.7%) (94.2%) (76%) 1-2d 0.0388 0.0618 0.01567 0.0255 0.0037 0.0110 (99.995%) (97.5%) (100%) (96.2%) (100%) (93%) 2-3d 0.0002 0.0626 0 0.0260 0 0.0115 (100%) (99.4%) (100%) (98.2%) (100%) (97.3%) 3-4d 0 0.063 ...

[2] = Peptide toxins in the blood / toxicokinetics in beagles with biliary drainage; assay type: in vivo, beagle dogs; design: Dose normalized AUC (0–∞) / Dose normalized Cmax: unit not given here; settings: for T1/2 / AUC (0–∞) / CL/F / Cmax / Dose normalized AUC (0–∞) / Dose normalized Cmax / MRT (0–∞) / Tmax / Vd/F: biliary drainage, plasma, mean ± SD; for T1/2: UPLC-ESI-MS/MS; for Vd/F: male, beagle, dog, read-out: Vz/F
Protocol: The study was approved by National Institute of Occupational Health and Poison Control review board for animal experiments. Twenty-four male beagles (age, 8–10 months; weight, 10 ± 1 kg) were obtained from Beijing Institute of Xieerxin Biology Resource (Beijing, China). They were randomly divided into four groups of six animals each: control, biliary drainage, and 20 and 60 mg/kg with biliary drainage groups. The biliary drainage operation was conducted in all groups barring the control group. The dogs were dressed in homemade underwear, coats, and Elizabeth circles for a week to ensure pre-experimental acclimatization (Figure S8a–c). After determining the baseline values for biochemical indicators, the dogs were fasted for 24 h but received water ad libitum. They were anesthetized by intravenous administration of pentobarbital sodium (3%, 1 mL/kg) during the surgery. A temperature of 38–39 °C was maintained with a warming mat. After skin preservation and sterilization, the abdominal cavity was opened through the central abdomen. The abdomen was explored and blunt dissection of the common bile duct was performed (Figure S8d). The common bile duct and its branches were ligated from the intestinal side. A 7.0-Fr drainage catheter (COOK, Bloomington, IN, USA) was percutaneously inserted into the gallbladder, and a medical drainage bag was connected to the drainage catheter coming out of the abdominal cavity. Each opened layer, including the peritoneum, abdominal wall muscle, and skin, was closed with suture. The operative incision was protected with sterile gauze and a bandage, and the dogs were dressed in homemade underwear, coats, and Elizabeth circles. The drainage bag was placed in the pocket of the coat (Figure S8e). After the anesthetic wore off, the dogs were placed in cages, and food and water were provided ad libitum. The operative incision was sterilized with iodophor twice a day until stitches were removed six days after surgery. The drainage bag was replaced every day. On the eighth day after surgery, the 20 and 60 mg/kg with biliary drainage groups were orally administered a lyophilized powder of Amanita exitialis in starch capsules. In control and bile drainage group, the beagle dogs were fed with empty capsules. Immediately after dosing, the animals were placed in their cages, and food and water were provided ad libitum. Dogs were sacrificed with an overdose of sodium pentobarbital at the end of the experiment. All procedures were performed according to the ethical standards of the National Institutes of Health Guide for Animal Welfare and approved by the Institutional Animal Care and Use Committee (EAWE-2017-005).
Peptide toxins in blood and urine samples were analyzed as described previously. Bile samples from Days 0–1, Days 1–2, Days 2–3, and Days 3–4 were collected and stored in medical drainage bags and the bile volume was recorded. Plasma and urine samples were stored at 2–8 °C until analysis for peptide toxins.
UPLC and MS/MS parameters were as described in our previous study. The limit of detection and limit of quantitation of each toxin in the bile were 0.03 mg/kg and 0.5 mg/kg, respectively.
Toxicokinetic parameters were described in our previous study. Measurement data are reported as mean ± standard deviation values and enumeration data are reported as percentage (%). […] SPSS 22.0 (IBM Corporation, Armonk, NY, USA, 2015) was used for statistical analysis. The criterion for statistical significance was p ≤ 0.05. Except for the biliary drainage operation, the animals and methods in our present study are in accordance with our previously published study. Thus, by directly comparing the data from this study with those from our published studies on Amanita exitialis-exposed beagles without biliary drainage, we can evaluate the impact of biliary drainage on the toxicity and toxicokinetics of Amanita exitialis in beagles.

[3] = 20 mg/kg Amanita exitialis oral
[4] = 60 mg/kg Amanita exitialis oral

## CC[C@H](C)[C@@H]1NC(=O)CNC(=O)[C@@H]2Cc3c([nH]c4cc(O)ccc34)[S@+]([O-])C[C@H](NC(=O)CNC1=O)C(=O)N[C@@H](CC(=O)O)C(=O)N1C[C@H](O)C[C@H]1C(=O)N[C@@H]([C@@H](C)[C@@H](O)CO)C(=O)N2 [β-amanitin]
[1]; 0-1d, 20 mg/kg group
  daily amount excreted in urine, without biliary drainage: 0.0156 mg
  percentage in parentheses, urine, without biliary drainage: 99.9%
[1]; 0-1d, 60 mg/kg group
  daily amount excreted in urine, without biliary drainage: 0.0251 mg
  percentage in parentheses, urine, without biliary drainage: 94.7%
[1]; 20 mg/kg group
  Accumulative amount excreted in urine, without biliary drainage: 0.0157 mg
  percentage in parentheses, Accumulative amount, urine, without biliary drainage: 100%
[1]; 20 mg/kg group, listed as β-Amanitin
  Accumulative amount excreted in urine, without biliary drainage: 0.01567 mg
[1]; 60 mg/kg group
  percentage in parentheses, Accumulative amount, urine, without biliary drainage: 100%
[1]; 1-2d, 20 mg/kg group
  percentage in parentheses, urine, without biliary drainage: 100%
[1]; 1-2d, 60 mg/kg group
  daily amount excreted in urine, without biliary drainage: 0.0255 mg
  percentage in parentheses, urine, without biliary drainage: 96.2%
[1]; 2-3d, 20 mg/kg group
  daily amount excreted in urine, without biliary drainage: 0 mg
  percentage in parentheses, urine, without biliary drainage: 100%
[1]; 2-3d, 60 mg/kg group
  daily amount excreted in urine, without biliary drainage: 0.0260 mg
  percentage in parentheses, urine, without biliary drainage: 98.2%
[1]; 3-4d, 20 mg/kg group
  daily amount excreted in urine, without biliary drainage: 0 mg
  percentage in parentheses, urine, without biliary drainage: 100%
[1]; 3-4d, 60 mg/kg group
  daily amount excreted in urine, without biliary drainage: 0.0264 mg
  percentage in parentheses, urine, without biliary drainage: 100%
[2]; 0 h after ingestion, 20 mg/kg with biliary drainage group
  detection rate of peptide toxins in blood: 0%
[2]; 0 h after ingestion, 60 mg/kg with biliary drainage group
  detection rate of peptide toxins in blood: 0%
[2]; [3]
  T1/2: 1.29 ± 1.07 h
  AUC (0–∞): 3.24 ± 1.49 µg·h/L
  CL/F: 10.7 ± 7 mL/min/kg
  Cmax: 0.85 ± 0.33 µg/L
  Dose normalized AUC (0–∞): 179 ± 82.4
  Dose normalized Cmax: 57 ± 18.3
  MRT (0–∞): 3.83 ± 1.02 h
  Tmax: 1.63 ± 0.48 h
  Vd/F: 0.78 ± 0.63 L/kg
[2]; [4]
  T1/2: 1.54 ± 0.71 h
  AUC (0–∞): 15.75 ± 4.27 ^a,b µg/L × h
  CL/F: 5.5 ± 1.5 mL/min/kg
  Cmax: 5.18 ± 1.32 ^a,b µg/L
  Dose normalized AUC (0–∞): 222.3 ± 79.2
  Dose normalized Cmax: 96 ± 24.4
  MRT (0–∞): 3.89 ± 0.46 h
  Tmax: 1.25 ± 0.29 h
  Vd/F: 1.38 ± 0.59 L/kg
[2]; 0.25 h after ingestion, 20 mg/kg with biliary drainage group
  detection rate of peptide toxins in blood: 0%
[2]; 0.25 h after ingestion, 60 mg/kg with biliary drainage group
  detection rate of peptide toxins in blood: 50%
[2]; 0.5 h after ingestion, 20 mg/kg with biliary drainage group
  detection rate of peptide toxins in blood: 33%
[2]; 0.5 h after ingestion, 60 mg/kg with biliary drainage group
  detection rate of peptide toxins in blood: 66%
[2]; 1 h after ingestion, 20 mg/kg with biliary drainage group
  detection rate of peptide toxins in blood: 100%
[2]; 1 h after ingestion, 60 mg/kg with biliary drainage group
  detection rate of peptide toxins in blood: 100%
[2]; 1.5 h after ingestion, 20 mg/kg with biliary drainage group
  detection rate of peptide toxins in blood: 100%
[2]; 1.5 h after ingestion, 60 mg/kg with biliary drainage group
  detection rate of peptide toxins in blood: 100%
[2]; 2 h after ingestion, 20 mg/kg with biliary drainage group
  detection rate of peptide toxins in blood: 100%
[2]; 2 h after ingestion, 60 mg/kg with biliary drainage group
  detection rate of peptide toxins in blood: 100%
[2]; 3 h after ingestion, 20 mg/kg with biliary drainage group
  detection rate of peptide toxins in blood: 100%
[2]; 3 h after ingestion, 60 mg/kg with biliary drainage group
  detection rate of peptide toxins in blood: 100%
[2]; 4 h after ingestion, 20 mg/kg with biliary drainage group
  detection rate of peptide toxins in blood: 100%
[2]; 4 h after ingestion, 60 mg/kg with biliary drainage group
  detection rate of peptide toxins in blood: 100%
[2]; 5 h after ingestion, 20 mg/kg with biliary drainage group
  detection rate of peptide toxins in blood: 100%
[2]; 5 h after ingestion, 60 mg/kg with biliary drainage group
  detection rate of peptide toxins in blood: 100%
[2]; 6 h after ingestion, 20 mg/kg with biliary drainage group
  detection rate of peptide toxins in blood: 83%
[2]; 6 h after ingestion, 60 mg/kg with biliary drainage group
  detection rate of peptide toxins in blood: 100%
[2]; 8 h after ingestion, 20 mg/kg with biliary drainage group
  detection rate of peptide toxins in blood: 83%
[2]; 8 h after ingestion, 60 mg/kg with biliary drainage group
  detection rate of peptide toxins in blood: 100%
[2]; 10 h after ingestion, 20 mg/kg with biliary drainage group
  detection rate of peptide toxins in blood: 66%
[2]; 10 h after ingestion, 60 mg/kg with biliary drainage group
  detection rate of peptide toxins in blood: 100%
[2]; 12 h after ingestion, 20 mg/kg with biliary drainage group
  detection rate of peptide toxins in blood: 33%
[2]; 12 h after ingestion, 60 mg/kg with biliary drainage group
  detection rate of peptide toxins in blood: 100%
[2]; 24 h after ingestion, 20 mg/kg with biliary drainage group
  detection rate of peptide toxins in blood: 0%
[2]; 24 h after ingestion, 60 mg/kg with biliary drainage group
  detection rate of peptide toxins in blood: 33%
[2]; 36 h after ingestion, 20 mg/kg with biliary drainage group
  detection rate of peptide toxins in blood: 0%
[2]; 36 h after ingestion, 60 mg/kg with biliary drainage group
  detection rate of peptide toxins in blood: 0%
[2]; 48 h after ingestion, 20 mg/kg with biliary drainage group
  detection rate of peptide toxins in blood: 0%
[2]; 48 h after ingestion, 60 mg/kg with biliary drainage group
  detection rate of peptide toxins in blood: 0%
[2]; beagles with biliary drainage, oral Amanita exitialis
  time at which toxins were detected in plasma after ingestion: 30 min
